According to paper PMC9248904, “Genomic and Chemical Decryption of the Bacteroidetes Phylum for Its Potential to Biosynthesize Natural Products” (Microbiology Spectrum, 2022):
Converted amounts (≈) assume the structure as drawn. Like-named read-outs stand apart in the source and are kept apart here.

Assays:
[1] = system: Fusarium oxysporum ATCC 7601; test: microbe, parasite or virus in culture; type: cell-based; settings: F. oxysporum ATCC 7601, potato dextrose broth, 25°C, 100,000 spores/mL, BacTiter-Glo, Iron -, at least triplicate
Description: (§1) The MIC was determined by broth microdilution method in 96-well plates with 100 µL assay volume per well following EUCAST instructions ([116], [117]) for E. coli ATCC 35218, E. coli ATCC 25922 ΔTolC, E. coli MG1655, Pseudomonas aeruginosa ATCC 27853, P. aeruginosa PAO750, Klebsiella pneumoniae ATCC 13883, Moraxella catarrhalis ATCC 25238, Acinetobacter baumannii ATCC 19606, Bacillus subtilis DSM 10, Staphylococcus aureus ATCC 25923, and Micrococcus luteus DSM 20030. Listeria monocytogenes DSM 20600 (1 day of incubation at 37°C) and Mycobacterium smegmatis ATCC 607 (2 days of incubation at 37°C) were grown in BHI broth supplemented with 1% (vol/vol) Tween 80. Candida albicans FH2173 was grown in MHIIB over 2 days of incubation at 37°C (pre-culture 2 days at 28°C). Approximate inoculation cell density for all strains was 500,000 CFU/mL, except 1,000,000 CFU/mL were used for M. smegmatis and C. albicans. For all fungal screenings 100,000 spores/mL were used and incubated at 37°C for Aspergillus flavus ATCC 9170 (MHIIB) and 25°C for Z. tritici MUCL45407 (4 g/L yeast extract, 4 g/L malt extract, 4 g/L sucrose) and Fusarium oxysporum ATCC 7601 (potato dextrose broth, Sigma). Growth inhibition was detected by optical density (600 nm) or for M. luteus, L. monocytogenes, C. albicans, M. smegmatis, and all fungi by quantification of free ATP using BacTiter-Glo after 24 to 48 h (72 h for Z. tritici). All MIC assays were performed at least in triplicate. FE(III)-citrate was added at molar ratios of 1:1 to samples in DMSO to test compounds in their iron bound conformation.

Candida albicans FH2173 = test: microbe, parasite or virus in culture; type: cell-based; settings: C. albicans FH2173, MHIIB, 2 days 37°C, BacTiter-Glo, Iron -, at least triplicate
Description: as §1

[2] = system: Aspergillus flavus ATCC 9170; test: microbe, parasite or virus in culture; type: cell-based; settings: A. flavus ATCC 9170, MHIIB, 37°C, 100,000 spores/mL, BacTiter-Glo, Iron -, at least triplicate
Description: as §1

Z. tritici MUCL45407 = test: microbe, parasite or virus in culture; type: cell-based; settings: Z. tritici MUCL45407, 25°C, 72 h, 100,000 spores/mL, BacTiter-Glo, Iron -, at least triplicate
Description: as §1

[3] = system: Staphylococcus aureus ATCC 25923; type: cell-based; settings: S. aureus ATCC 25923; broth microdilution, 96-well, EUCAST; OD600; Iron -; at least triplicate
Description: as §1

[4] = system: Moraxella catarrhalis ATCC 25238; type: cell-based; settings: M. catarrhalis ATCC 25238; broth microdilution, 96-well, EUCAST; OD600; Iron -; at least triplicate
Description: as §1

[5] = system: Micrococcus luteus DSM 20030; type: cell-based; settings: M. luteus DSM 20030; broth microdilution, 96-well; free ATP (BacTiter-Glo); Iron -; at least triplicate
Description: as §1

Bacillus subtilis DSM 10 = type: cell-based; settings: B. subtilis DSM 10; broth microdilution, 96-well, EUCAST; OD600; Iron -; at least triplicate
Description: as §1

[6] = system: Acinetobacter baumannii ATCC 19606; type: cell-based; settings: A. baumannii ATCC 19606; broth microdilution, 96-well, EUCAST; OD600; Iron -; at least triplicate
Description: as §1

[7] = system: Pseudomonas aeruginosa ATCC 27853; type: cell-based; settings: P. aeruginosa ATCC 27853; broth microdilution, 96-well, EUCAST; OD600; Iron -; at least triplicate
Description: as §1

[8] = system: Mycobacterium smegmatis ATCC 607; test: microbe, parasite or virus in culture; type: cell-based; settings: M. smegmatis ATCC 607; BHI broth + 1% Tween 80, 2 days 37°C; BacTiter-Glo; Iron -; at least triplicate
Description: as §1

E. coli ATCC 25922 ΔTolC = type: cell-based, Escherichia coli; settings: broth microdilution, 96-well, EUCAST, OD600, Iron -, at least triplicate
Description: as §1

E. coli ATCC 35218 = type: cell-based, Escherichia coli; settings: E. coli ATCC 35218; broth microdilution, 96-well, EUCAST; OD600; chitinopeptins without iron (Iron -); at least triplicate
Description: as §1

[9] = system: Listeria monocytogenes DSM 20600; type: cell-based; settings: L. monocytogenes DSM 20600; BHI broth + 1% Tween 80, 1 day 37°C; BacTiter-Glo; Iron -; at least triplicate
Description: as §1

[10] = system: Klebsiella pneumoniae ATCC 13883; type: cell-based; settings: K. pneumoniae ATCC 13883; broth microdilution, 96-well, EUCAST; OD600; Iron -; at least triplicate
Description: as §1

P. aeruginosa PAO750 = type: cell-based, Pseudomonas aeruginosa; settings: broth microdilution, 96-well, EUCAST, OD600, Iron -, at least triplicate
Description: as §1

E. coli MG1655 = type: cell-based, Escherichia coli; settings: broth microdilution, 96-well, EUCAST, OD600, Iron -, at least triplicate
Description: as §1

Compound	MIC [3]	MIC [4]	MIC [5]	MIC (Bacillus subtilis DSM 10)	MIC [6]	MIC [7]	MIC [1]	MIC (Candida albicans FH2173)	MIC [8]	MIC [2]	MIC (E. coli ATCC 25922 ΔTolC)	MIC (E. coli ATCC 35218)	MIC [9]	MIC [10]	MIC (P. aeruginosa PAO750)	MIC (E. coli MG1655)	also measured
CC(C)(C)C(O)(CCc1ccc(Cl)cc1)Cn1cncn1 (stereo not drawn) [Tebuconazole, reference compound]																	MIC ([1]; Fusarium oxysporum, ATCC7601, read-out: MIC): > 64 µg/mL; MIC (Candida albicans FH2173; Candida albicans, 48 h, read-out: MIC): 2 µg/mL (≈ 6.5 µM); MIC ([2]; Aspergillus flavus, ATCC9170, read-out: MIC): 2 µg/mL (≈ 6.5 µM); MIC (Z. tritici MUCL45407; Zymoseptoria tritici, read-out: MIC): 0.5 µg/mL (≈ 1.62 µM)
Chitinopeptin C1+C2	> 64 µg/mL	2 µg/mL	32 µg/mL	4 µg/mL	16 µg/mL	> 64 µg/mL	> 64 µg/mL	16 µg/mL	> 64 µg/mL	64 µg/mL	> 64 µg/mL	> 64 µg/mL					MIC (Z. tritici MUCL45407): 16 µg/mL
Chitinopeptin D1+D2	> 64 µg/mL	2 µg/mL	32 µg/mL	4 µg/mL	16 µg/mL	> 64 µg/mL	> 64 µg/mL	16 µg/mL	> 64 µg/mL	64 µg/mL	> 64 µg/mL	> 64 µg/mL					
Gentamycin [reference compound]	0.063 µg/mL	0.125 µg/mL	≤ 0.031 µg/mL	≤ 0.031 µg/mL	16 µg/mL	1 µg/mL					0.25 µg/mL	0.125 µg/mL	≤ 0.031 µg/mL	≤ 0.031 µg/mL	0.125 µg/mL	0.5 µg/mL	
Rifamicin [reference compound]	≤ 0.031 µg/mL	≤ 0.031 µg/mL	≤ 0.031 µg/mL	≤ 0.031 µg/mL	2 µg/mL	32 µg/mL			8 µg/mL		2 µg/mL	4 µg/mL	≤ 0.031 µg/mL	8 µg/mL	16 µg/mL	16 µg/mL	
